Results from paper PMC9234961 (Journal of Medicinal Chemistry, 2022).
Values joined by “and” are separate entries in the source; they are usually repeats but may differ in a detail not shown here. Equal entries are not always repeated. Where two headings read alike, the source gives them in different places.

Experiments:
kinases (468) [1] = target: kinases (468) (Homo sapiens, UniProt P08581, Y1235D); conditions: MET(Y1235D); 1000 nM
kinases (468) [2] = target: kinases (468) (Homo sapiens, UniProt P15056, V600E); conditions: BRAF(V600E); 1000 nM
kinases (468) [3] = target: kinases (468) (Homo sapiens, UniProt Q9UM73, C1156Y); conditions: ALK(C1156Y); 1000 nM
kinases (468) [4] = target: kinases (468) (Homo sapiens, UniProt P09769); conditions: FGR; 1000 nM
kinases (468) (Homo sapiens, UniProt P09769), sequence (P09769 whole entry): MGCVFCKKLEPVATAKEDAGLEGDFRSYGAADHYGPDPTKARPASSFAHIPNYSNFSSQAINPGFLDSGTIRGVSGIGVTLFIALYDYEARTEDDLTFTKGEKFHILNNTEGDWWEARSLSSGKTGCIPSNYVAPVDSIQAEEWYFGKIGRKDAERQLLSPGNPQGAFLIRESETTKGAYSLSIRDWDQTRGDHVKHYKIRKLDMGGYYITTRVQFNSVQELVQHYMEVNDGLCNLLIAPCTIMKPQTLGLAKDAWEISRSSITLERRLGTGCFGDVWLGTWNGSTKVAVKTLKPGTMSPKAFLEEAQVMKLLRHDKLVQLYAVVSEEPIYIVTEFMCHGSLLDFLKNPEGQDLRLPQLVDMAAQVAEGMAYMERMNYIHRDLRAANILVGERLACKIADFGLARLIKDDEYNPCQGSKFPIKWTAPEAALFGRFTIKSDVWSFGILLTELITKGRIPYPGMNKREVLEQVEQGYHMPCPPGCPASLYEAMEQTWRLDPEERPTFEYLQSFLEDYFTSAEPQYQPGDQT

kinases (468) [5] = target: kinases (468) (Homo sapiens, UniProt Q07002); conditions: PCTK3 (CDK18); 1000 nM
kinases (468) (Homo sapiens, UniProt Q07002), sequence (Q07002 whole entry): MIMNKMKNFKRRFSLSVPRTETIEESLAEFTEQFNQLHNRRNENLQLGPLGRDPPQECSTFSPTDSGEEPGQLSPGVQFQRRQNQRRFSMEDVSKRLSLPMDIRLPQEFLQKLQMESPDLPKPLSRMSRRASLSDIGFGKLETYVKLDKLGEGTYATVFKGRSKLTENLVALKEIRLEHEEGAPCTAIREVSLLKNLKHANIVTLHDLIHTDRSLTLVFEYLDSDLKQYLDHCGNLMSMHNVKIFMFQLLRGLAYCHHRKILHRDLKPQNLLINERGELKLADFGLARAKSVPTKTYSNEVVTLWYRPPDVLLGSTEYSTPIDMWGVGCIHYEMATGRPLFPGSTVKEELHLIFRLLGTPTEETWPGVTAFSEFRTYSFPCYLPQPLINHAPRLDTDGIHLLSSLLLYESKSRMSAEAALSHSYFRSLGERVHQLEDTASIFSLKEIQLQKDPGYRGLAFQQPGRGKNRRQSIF

kinases (468) [6] = target: kinases (468) (Homo sapiens, UniProt P42336, M1043I); conditions: PIK3CA(M1043I); 1000 nM
kinases (468) [7] = target: kinases (468) (Homo sapiens, UniProt Q9H422); conditions: HIPK3; 1000 nM
kinases (468) [8] = target: kinases (468) (Homo sapiens, UniProt O75385); conditions: kinase ULK1 (Entrez ULK1); compound concentration 1000 nM
kinases (468) [9] = target: kinases (468) (Homo sapiens, UniProt P00519, Y253F); conditions: ABL1(Y253F)-phosphorylated; 1000 nM
kinases (468) [10] = target: kinases (468) (Homo sapiens, UniProt P52333); conditions: JAK3(JH1domain-catalytic); 1000 nM
kinases (468) [11] = target: kinases (468) (Homo sapiens, UniProt Q16566); conditions: CAMK4; 1000 nM
kinases (468) [12] = target: kinases (468) (Homo sapiens, UniProt Q14012); conditions: CAMK1; 1000 nM
kinases (468) (Homo sapiens, UniProt Q14012), sequence (Q14012 whole entry): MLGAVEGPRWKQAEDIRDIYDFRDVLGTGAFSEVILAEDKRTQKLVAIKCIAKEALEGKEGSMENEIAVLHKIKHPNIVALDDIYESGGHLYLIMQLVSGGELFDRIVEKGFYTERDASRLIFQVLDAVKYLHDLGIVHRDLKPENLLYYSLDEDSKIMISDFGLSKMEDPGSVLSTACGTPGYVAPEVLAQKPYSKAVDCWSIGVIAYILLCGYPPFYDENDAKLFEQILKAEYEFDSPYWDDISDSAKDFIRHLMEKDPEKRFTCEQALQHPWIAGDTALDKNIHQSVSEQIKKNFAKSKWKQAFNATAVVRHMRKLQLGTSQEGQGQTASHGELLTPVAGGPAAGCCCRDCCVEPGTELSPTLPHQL

kinases (468) [13] = target: kinases (468) (Homo sapiens, UniProt P50613); conditions: CDK7; 1000 nM
kinases (468) [14] = tested on: kinases (468)
kinases (468) [15] = target: kinases (468) (Homo sapiens, UniProt P49336); conditions: CDK8; 1000 nM
kinases (468) (Homo sapiens, UniProt P49336), sequence (P49336 whole entry): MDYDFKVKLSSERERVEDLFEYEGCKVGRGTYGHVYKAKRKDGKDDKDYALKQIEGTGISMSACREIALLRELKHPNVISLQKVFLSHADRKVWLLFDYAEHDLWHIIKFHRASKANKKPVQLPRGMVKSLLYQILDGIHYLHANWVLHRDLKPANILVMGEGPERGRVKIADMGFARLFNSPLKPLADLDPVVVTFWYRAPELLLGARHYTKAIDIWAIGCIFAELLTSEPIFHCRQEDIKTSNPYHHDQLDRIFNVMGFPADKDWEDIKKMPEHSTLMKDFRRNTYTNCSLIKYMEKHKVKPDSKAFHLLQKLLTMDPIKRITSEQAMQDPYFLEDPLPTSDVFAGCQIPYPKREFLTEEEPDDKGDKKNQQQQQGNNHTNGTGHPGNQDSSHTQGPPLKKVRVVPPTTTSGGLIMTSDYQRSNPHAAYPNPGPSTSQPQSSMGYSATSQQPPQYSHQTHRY

kinases (468) [16] = target: kinases (468) (Homo sapiens, UniProt P36888, R834Q); conditions: FLT3(R834Q); 1000 nM
kinases (468) [17] = target: kinases (468) (Homo sapiens, UniProt Q9Y616); conditions: IRAK3; 1000 nM
kinases (468) (Homo sapiens, UniProt Q9Y616), sequence (Q9Y616 whole entry): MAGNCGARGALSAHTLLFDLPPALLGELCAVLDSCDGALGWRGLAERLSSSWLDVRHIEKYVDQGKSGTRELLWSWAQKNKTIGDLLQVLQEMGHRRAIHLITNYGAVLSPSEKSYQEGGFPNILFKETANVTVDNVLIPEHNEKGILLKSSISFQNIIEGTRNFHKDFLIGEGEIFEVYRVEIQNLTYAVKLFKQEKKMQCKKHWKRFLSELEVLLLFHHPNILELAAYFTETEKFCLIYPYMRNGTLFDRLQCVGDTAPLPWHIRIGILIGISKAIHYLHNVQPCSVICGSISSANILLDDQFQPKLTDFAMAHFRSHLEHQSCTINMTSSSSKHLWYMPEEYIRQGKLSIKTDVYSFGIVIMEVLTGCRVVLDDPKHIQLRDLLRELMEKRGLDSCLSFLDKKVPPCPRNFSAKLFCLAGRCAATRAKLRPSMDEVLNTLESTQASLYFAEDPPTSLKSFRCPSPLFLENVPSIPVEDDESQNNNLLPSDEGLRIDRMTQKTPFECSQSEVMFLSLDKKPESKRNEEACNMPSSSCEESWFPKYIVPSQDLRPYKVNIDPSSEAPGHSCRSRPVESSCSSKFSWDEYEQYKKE

kinases (468) [18] = target: kinases (468) (Homo sapiens, UniProt Q9H0K1); conditions: kinase SIK2 (Entrez SIK2); compound concentration 1000 nM
kinases (468) [19] = target: kinases (468) (Homo sapiens, UniProt P36897); conditions: kinase TGFBR1 (Entrez TGFBR1); compound concentration 1000 nM
kinases (468) [20] = target: kinases (468) (Homo sapiens, UniProt Q9Y2I7); conditions: PIKFYVE; 1000 nM
kinases (468) [21] = target: kinases (468) (Homo sapiens, UniProt Q13873); conditions: BMPR2; 1000 nM
kinases (468) [22] = target: kinases (468) (Homo sapiens, UniProt O94804); conditions: LOK (STK10); 1000 nM
kinases (468) (Homo sapiens, UniProt O94804), sequence (O94804 whole entry): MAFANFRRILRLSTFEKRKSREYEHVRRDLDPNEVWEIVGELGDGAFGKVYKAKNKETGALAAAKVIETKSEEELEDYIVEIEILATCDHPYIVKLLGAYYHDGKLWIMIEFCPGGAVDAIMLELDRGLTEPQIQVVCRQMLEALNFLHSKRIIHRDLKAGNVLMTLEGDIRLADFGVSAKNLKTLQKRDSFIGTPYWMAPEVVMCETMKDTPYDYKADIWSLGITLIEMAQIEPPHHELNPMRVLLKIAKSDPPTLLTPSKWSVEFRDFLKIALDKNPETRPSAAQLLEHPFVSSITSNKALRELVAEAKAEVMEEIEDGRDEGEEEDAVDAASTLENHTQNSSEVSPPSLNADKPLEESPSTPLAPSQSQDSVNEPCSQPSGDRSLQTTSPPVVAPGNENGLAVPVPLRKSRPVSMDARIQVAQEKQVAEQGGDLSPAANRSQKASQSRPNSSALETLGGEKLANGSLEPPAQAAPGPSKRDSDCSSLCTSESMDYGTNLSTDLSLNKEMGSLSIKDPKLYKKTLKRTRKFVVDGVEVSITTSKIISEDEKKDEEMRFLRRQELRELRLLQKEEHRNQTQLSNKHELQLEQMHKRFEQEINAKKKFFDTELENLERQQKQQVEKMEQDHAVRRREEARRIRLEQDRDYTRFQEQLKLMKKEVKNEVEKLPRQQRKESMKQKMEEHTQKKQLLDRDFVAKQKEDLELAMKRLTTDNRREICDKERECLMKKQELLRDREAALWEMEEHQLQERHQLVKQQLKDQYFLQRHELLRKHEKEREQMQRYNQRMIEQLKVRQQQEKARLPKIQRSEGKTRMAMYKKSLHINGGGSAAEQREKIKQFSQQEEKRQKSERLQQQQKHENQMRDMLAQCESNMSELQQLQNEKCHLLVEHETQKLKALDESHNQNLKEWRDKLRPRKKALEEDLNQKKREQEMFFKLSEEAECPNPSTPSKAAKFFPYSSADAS

kinases (468) [23] = target: kinases (468) (Homo sapiens, UniProt P50750); conditions: CDK9; 1000 nM
kinases (468) [24] = target: kinases (468) (Homo sapiens, UniProt Q9Y463); conditions: DYRK1B; 1000 nM
kinases (468) [25] = target: kinases (468) (Homo sapiens, UniProt O94921); conditions: PFTK1 (CDK14); 1000 nM
kinases (468) [26] = target: kinases (468) (Homo sapiens, UniProt O00238); conditions: BMPR1B; 1000 nM
kinases (468) [27] = target: kinases (468) (Homo sapiens, UniProt Q9H4B4); conditions: PLK3; 1000 nM
kinases (468) (Homo sapiens, UniProt Q9H4B4), sequence (Q9H4B4 whole entry): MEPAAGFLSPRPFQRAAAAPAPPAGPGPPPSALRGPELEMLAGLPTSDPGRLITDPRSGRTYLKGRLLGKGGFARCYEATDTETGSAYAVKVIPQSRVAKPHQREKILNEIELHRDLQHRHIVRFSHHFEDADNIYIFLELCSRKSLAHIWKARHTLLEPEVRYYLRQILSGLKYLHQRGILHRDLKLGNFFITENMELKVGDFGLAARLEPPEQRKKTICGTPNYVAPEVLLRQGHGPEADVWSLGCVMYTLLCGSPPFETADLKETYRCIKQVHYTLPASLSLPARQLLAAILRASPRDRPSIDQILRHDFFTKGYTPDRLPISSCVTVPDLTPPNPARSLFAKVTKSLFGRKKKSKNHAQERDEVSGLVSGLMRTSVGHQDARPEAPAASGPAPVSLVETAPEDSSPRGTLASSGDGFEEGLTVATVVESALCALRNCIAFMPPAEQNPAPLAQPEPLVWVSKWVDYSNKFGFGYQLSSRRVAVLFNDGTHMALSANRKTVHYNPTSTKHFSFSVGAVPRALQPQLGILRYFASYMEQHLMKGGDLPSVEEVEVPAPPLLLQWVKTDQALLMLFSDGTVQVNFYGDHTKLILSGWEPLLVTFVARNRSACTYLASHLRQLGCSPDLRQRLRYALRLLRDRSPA

kinases (468) [28] = target: kinases (468) (Homo sapiens, UniProt P36888); conditions: 1000 nM
kinases (468) [29] = target: kinases (468) (Homo sapiens, UniProt Q86UX6); conditions: kinase YANK3 (Entrez STK32C); compound concentration 1000 nM
kinases (468) [30] = target: kinases (468) (Homo sapiens, UniProt Q06418); conditions: kinase TYRO3 (Entrez TYRO3); compound concentration 1000 nM
kinases (468) [31] = target: kinases (468) (Homo sapiens, UniProt Q9HAZ1); conditions: CLK4; 1000 nM
kinases (468) [32] = target: kinases (468) (Homo sapiens, UniProt Q96PY6); conditions: NEK1; 1000 nM
kinases (468) [33] = target: kinases (468) (Homo sapiens, UniProt P00519, E255K); conditions: ABL1(E255K)-phosphorylated; 1000 nM
kinases (468) [34] = target: kinases (468) (Homo sapiens, UniProt Q15139); conditions: PRKD1; 1000 nM
kinases (468) (Homo sapiens, UniProt Q15139), sequence (Q15139 whole entry): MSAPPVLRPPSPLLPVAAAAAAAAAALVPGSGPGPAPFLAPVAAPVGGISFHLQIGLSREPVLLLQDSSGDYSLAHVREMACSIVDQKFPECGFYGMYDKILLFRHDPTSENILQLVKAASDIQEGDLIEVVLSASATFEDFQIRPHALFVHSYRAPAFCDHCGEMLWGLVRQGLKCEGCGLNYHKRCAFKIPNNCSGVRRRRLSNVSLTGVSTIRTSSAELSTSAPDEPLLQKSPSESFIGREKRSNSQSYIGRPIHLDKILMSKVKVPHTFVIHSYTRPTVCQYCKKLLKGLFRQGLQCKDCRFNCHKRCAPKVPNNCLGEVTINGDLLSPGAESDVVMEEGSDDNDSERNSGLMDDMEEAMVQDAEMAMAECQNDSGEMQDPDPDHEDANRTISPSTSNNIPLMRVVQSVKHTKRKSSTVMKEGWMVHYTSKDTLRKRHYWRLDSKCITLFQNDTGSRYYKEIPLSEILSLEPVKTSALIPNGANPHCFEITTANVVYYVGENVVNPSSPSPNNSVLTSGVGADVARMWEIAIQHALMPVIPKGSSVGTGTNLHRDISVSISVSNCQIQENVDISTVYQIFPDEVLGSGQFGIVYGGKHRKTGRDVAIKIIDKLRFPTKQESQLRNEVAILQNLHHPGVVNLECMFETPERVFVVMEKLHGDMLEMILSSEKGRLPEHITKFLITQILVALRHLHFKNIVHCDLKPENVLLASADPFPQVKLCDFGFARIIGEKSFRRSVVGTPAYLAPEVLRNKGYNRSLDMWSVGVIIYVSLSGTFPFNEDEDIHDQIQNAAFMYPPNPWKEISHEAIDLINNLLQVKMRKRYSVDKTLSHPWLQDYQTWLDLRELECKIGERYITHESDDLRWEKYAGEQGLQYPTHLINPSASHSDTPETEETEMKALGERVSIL

C[C@H]1C[C@@H](O)CN(c2ncc(Cl)c(Nc3ccc4c(c3)c3c(c(=O)n4C)OCC(F)(F)[C@H](C4CC4)N3)n2)C1 [CCT373566_9A]
Percent Control (kinases (468) [1]): 99% | Percent Control (kinases (468) [2]): 100% | Percent Control (kinases (468) [3]): 95% | Percent Control (kinases (468) [4]): 100% | Percent Control (kinases (468) [5]): 99% | Percent Control (kinases (468) [6]): 89% | Percent Control (kinases (468) [7]): 100% | Percent Control (kinases (468) [8]): 93% | Percent Control (kinases (468) [9]): 91% | Percent Control (kinases (468) [10]): 78% | Percent Control (kinases (468) [11]): 100% | Percent Control (kinases (468) [12]): 89% | Percent Control (kinases (468) [13]): 93% | Percent Control (kinases (468) [14]): 98% and 100% and 83% | Percent Control (kinases (468) [14]; FLT3(ITD), 1000 nM): 99% | Percent Control (kinases (468) [14]; FLT3(ITD,D835V), 1000 nM): 75% | Percent Control (kinases (468) [15]): 100% | Percent Control (kinases (468) [16]): 100% | Percent Control (kinases (468) [17]): 100% | Percent Control (kinases (468) [18]): 98% | Percent Control (kinases (468) [19]): 89% | Percent Control (kinases (468) [20]): 83% | Percent Control (kinases (468) [21]): 100% | Percent Control (kinases (468) [22]): 100% | Percent Control (kinases (468) [23]): 96% | Percent Control (kinases (468) [24]): 87% | Percent Control (kinases (468) [25]): 95% | Percent Control (kinases (468) [26]): 97% | Percent Control (kinases (468) [27]): 78% | Percent Control (kinases (468) [28]; FLT3-autoinhibited): 98% | Percent Control (kinases (468) [28]; FLT3): 99% | Percent Control (kinases (468) [29]): 100% | Percent Control (kinases (468) [30]): 100% | Percent Control (kinases (468) [31]): 91% | Percent Control (kinases (468) [32]): 98% | Percent Control (kinases (468) [33]): 99% | Percent Control (kinases (468) [34]): 98%
